{"source": "patent US11958865B1", "about": "“Leucine-rich repeat kinase 2 (LRRK2) inhibitors” (H. Lundbeck A/S, priority 2022, dated 2024)", "key": {"LRRK2 WT [1]": {"target": "T1, LRRK2 WT (Homo sapiens (Human), UniProt Q5S007)", "T1 sequence (Q5S007 970-2527)": "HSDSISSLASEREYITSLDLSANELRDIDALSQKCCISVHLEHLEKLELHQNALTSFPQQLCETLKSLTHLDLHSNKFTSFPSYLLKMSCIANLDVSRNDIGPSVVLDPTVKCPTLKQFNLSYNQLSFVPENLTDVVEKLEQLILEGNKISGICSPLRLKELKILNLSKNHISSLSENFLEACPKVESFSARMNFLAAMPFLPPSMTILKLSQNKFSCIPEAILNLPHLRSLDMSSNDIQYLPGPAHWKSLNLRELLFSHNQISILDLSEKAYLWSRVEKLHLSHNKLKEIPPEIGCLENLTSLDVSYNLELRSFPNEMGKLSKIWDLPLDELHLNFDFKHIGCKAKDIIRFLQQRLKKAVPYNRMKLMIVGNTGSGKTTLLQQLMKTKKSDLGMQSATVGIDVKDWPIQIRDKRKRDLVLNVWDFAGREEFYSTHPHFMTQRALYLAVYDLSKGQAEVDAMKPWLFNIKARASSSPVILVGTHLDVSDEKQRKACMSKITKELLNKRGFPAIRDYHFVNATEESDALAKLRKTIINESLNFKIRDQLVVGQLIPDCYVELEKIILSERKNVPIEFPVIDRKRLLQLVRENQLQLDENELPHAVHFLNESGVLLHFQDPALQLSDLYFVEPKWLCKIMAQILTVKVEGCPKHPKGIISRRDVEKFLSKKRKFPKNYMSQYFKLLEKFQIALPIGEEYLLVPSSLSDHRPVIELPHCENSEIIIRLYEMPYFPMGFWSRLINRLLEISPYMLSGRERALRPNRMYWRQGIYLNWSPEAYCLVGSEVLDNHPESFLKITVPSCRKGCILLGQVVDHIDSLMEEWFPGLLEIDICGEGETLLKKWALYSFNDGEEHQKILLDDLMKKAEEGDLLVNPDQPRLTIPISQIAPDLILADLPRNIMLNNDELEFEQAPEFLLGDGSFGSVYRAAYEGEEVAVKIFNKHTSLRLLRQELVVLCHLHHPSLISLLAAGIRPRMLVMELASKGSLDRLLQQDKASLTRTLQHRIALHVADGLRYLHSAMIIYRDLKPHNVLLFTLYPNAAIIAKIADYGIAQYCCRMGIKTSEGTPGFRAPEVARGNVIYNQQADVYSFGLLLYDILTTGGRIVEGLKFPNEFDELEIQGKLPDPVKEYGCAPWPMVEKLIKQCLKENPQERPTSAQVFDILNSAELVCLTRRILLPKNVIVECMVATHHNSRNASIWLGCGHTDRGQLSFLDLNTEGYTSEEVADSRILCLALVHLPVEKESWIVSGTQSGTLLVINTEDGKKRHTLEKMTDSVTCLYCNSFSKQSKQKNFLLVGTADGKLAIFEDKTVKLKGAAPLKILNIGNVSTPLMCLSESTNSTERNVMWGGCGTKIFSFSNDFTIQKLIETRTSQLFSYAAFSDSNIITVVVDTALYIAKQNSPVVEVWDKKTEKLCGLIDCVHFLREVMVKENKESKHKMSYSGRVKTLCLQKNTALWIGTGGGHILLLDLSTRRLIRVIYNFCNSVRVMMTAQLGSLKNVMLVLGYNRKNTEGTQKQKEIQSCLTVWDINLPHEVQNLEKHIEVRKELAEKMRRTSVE", "assay": "LRRK2 wild-type ADP-Glo kinase assay", "assay_type": "biochemical", "settings": "read-out: LRRK2 WT ADPGlo IC50", "experimental": "LRRK2 kinase activity was measured using an ADP-Glo kinase assay from Promega Corporation. The assay is a homogeneous luminescence-based assay that measures ADP formed from a kinase reaction. The ADP is converted into ATP, which is used to generate light in a luciferase reaction. The luminescence generated correlates with kinase activity.\nThe LRRK2 kinase was obtained from Invitrogen (Life Technologies Corporation) and comprises residue 970 to 2527 of the full length human wild-type LRRK2 kinase. The kinase reactions were performed in a 10 μL volume in 384-well plates. The kinase reaction buffer consisted of 50 mM Tris pH 8.5, 0.01% BRIJ-35, 10 mM MgCl2, 1 mM EGTA, and 2 mM DTT.\nThe reaction mixture (10 μl total volume) was incubated for 3 hours at room temperature (RT, ca. 25° C.), before the reaction was terminated by addition of 10 μl ADP-Glo reagent. The mixture was further incubated for 60 minutes at RT before addition of 20 μl Kinase detection reagent from the ADP-Glo assay kit. Luminescence signal was measure on a BMG Labtech Pherastar FSX multimode microplate reader. The signal integration time was 0.5 s.\nTest compound potency (Ki,app) was estimated by nonlinear regression using the tight-binding fit model in GeneData Screener (GeneData AG). In cases where the Ki,app could not be determined, the % inhibition at the highest tested concentration is reported. The tight-binding fit model is given by euquation (2). […] Ki,app is the apparent dissociation constant of the inhibitor. The IC50 can be calculated as given by equation (3). Equation (3): IC50=Ki,app+[E]/2 (3) IC50 estimates were obtained from independent experiment and the logarithmic average was calculated."}, "[2]": {"assay": "Hepatic microsomal intrinsic clearance assay", "assay_type": "in vitro ADME", "settings": "pooled liver microsomes, pH 7.4; liver microsomes 0.5 mg/mL; 1 μM; NADPH; 1 hour at 37° C.; LLOQ 0.36 L/h/kg", "outline": "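Compounds at 1 μM final were incubated with pooled liver microsomes (0.5 mg/mL) in phosphate buffer pH 7.4 at 37 °C for up to 60 min. Samples taken at 0, 5, 10, 20, 30 and 60 min were quenched with acetonitrile and analysed by LC-MS/MS.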"}, "LRRK2 WT [3]": {"target": "T1, LRRK2 WT", "assay": "LRRK2 wild-type LanthaScreen TR-FRET kinase activity assay", "assay_type": "biochemical", "settings": "1 nM kinase, 1.3 mM ATP, n≥2 tests", "experimental": "(§1) LRRK2 kinase activity was measured using a LanthaScreen kinase activity assay available from Invitrogen (Life Technologies Corporation). […] The phosphorylated peptide is recognized by a terbium-labelled phospho-specific anti-LRRKtide antibody (pLRRKtide antibody), obtainable from Life Technologies Corporation) and, subsequently, the phosphorylated LRRKtide can be quantified by the extent of TR-FRET between the terbium donor and fluorescein acceptor.\n(§2) As discussed above, this mutation increases the kinase activity relative to the wild type. The kinase reactions were performed in a 20 μL volume in 384-well plates. The kinase reaction buffer consisted of 50 mM Tris pH 8.5, 0.01% BRIJ-35, 10 mM MgCl2, 1 mM EGTA, and 2 mM DTT.\n(§3) The mixture was further incubated for 30 minutes at RT. TR-FRET was measured by excitation of the terbium-donor with 340 nm light and subsequent (delay time […]) measurement of terbium and fluorescein emission at 495 nm and 520 nm, respectively, over a time window of […]. The measurement was repeated 30 times for fluorescein and 30 times for terbium emission with a […] between repeats. TR-FRET measurements were performed on a Biotek Synergy plate. The TR-FRET signal was calculated as the emission-ratio at 520 nm over 495 nm.\n(§4) Test compound potency (IC50) was estimated by nonlinear regression using the sigmoidal dose-response (variable slope) using Xlfit 4 (IDBS, Guildford, Surrey, UK, model 205). Were the IC50 could not be determined the % inhibition at the highest tested concentration is given by equation 1. Equation (1): y=(A+((B−A)/(1+((C/x)^D)))) (1)\n(§5) where y is the normalized TR-TRET ratio measurement for a given concentration of test compound, x is the concentration of test compound, A is the estimated efficacy (% inhibition) at infinite compound dilution, and B is the maximal efficacy (% inhibition). C is the IC50 value and D is the Hill slope coefficient. IC50 estimates were obtained from independent experiment and the logarithmic average was calculated."}, "[4]": {"assay": "Hepatocyte intrinsic clearance assay", "assay_type": "in vitro ADME, Human", "settings": "pooled donor, cryopreserved hepatocytes, pH 7.4; human hepatocytes 1×10^6/mL; 0.05 μM; 2 h at 37° C.", "experimental": "Test compounds (final concentration 0.05 μM, 0.05% organic) were incubated for 2 h at 37° C., with shaking, in supplemented Leibovitz L-15 media (pH 7.4) containing commercially sourced, pooled donor, cryopreserved hepatocytes (final concentration 1×10^6 hepatocytes/mL). The CLint reactions (350 μL) were initiated by addition of test compound. Aliquots (25 μL) were taken at 1, 5, 10, 15, 30, 60, 90 and 120 minutes and then protein crashed with ice-cold acetonitrile containing internal standard (150 μL) then centrifuged (1960 g for 20 minutes at 4° C.). Supernatant was diluted (1:4) with deionized water then analyzed by liquid chromatography (LC)-tandem mass spectrometry (MS/MS)."}, "LRRK2 G2019S": {"target": "LRRK2 G2019S (Homo sapiens (Human), UniProt Q5S007, G2019S)", "sequence (Q5S007 970-2527 G2019S)": "as the sequence (Q5S007 970-2527) above, with G1050S counted along it", "assay": "LRRK2 G2019S LanthaScreen TR-FRET kinase activity assay", "assay_type": "biochemical", "settings": "250 pM kinase, 1.3 mM ATP, n≥2 tests", "experimental": "as §1, §2, §3, §4, §5"}}, "note": "pIC50: −log10 of the molar value."}
{"smiles": "[2H]C([2H])([2H])Oc1ncccc1-n1nc2c(c1C)Nc1ncc3c(Cl)nn(c3n1)CCCO2", "note": "[Example 24, 8-Chloro-2-(2-(methoxy-d3)pyridin-3-yl)-3-methyl-2,4,12,13-tetrahydro-11H-5,7-(azenometheno)dipyrazolo[3,4-b:5′,1′-g][1]oxa[4,6,8]triazacycloundecine]", "values": [{"measurement": "pIC50", "setting": "LRRK2 WT [1]", "result": 9.31}, {"measurement": "CLint scaled at 1 μM", "setting": "[2]", "result": 12.5, "unit": "mL/min/kg"}, {"measurement": "pIC50", "setting": "LRRK2 WT [3]", "result": 9.02}, {"measurement": "CLint scaled at 0.05 μM", "setting": "[4]", "result": 17.7, "unit": "mL/min/kg"}, {"measurement": "pIC50", "setting": "LRRK2 G2019S", "result": 9.46}]}
